Paper PMC4405350, “From Broad-Spectrum Biocides to Quorum Sensing Disruptors and Mussel Repellents: Antifouling Profile of Alkyl Triphenylphosphonium Salts” (PLoS ONE, 2015)

Tests used:
[1] = Solubility in water (stock preparation); format: physicochemical; conditions: for 40-mM stock
Description: Indeed, the inhibitions observed in violacein production for long alkyl chains (10–18, 20) were clearly correlated to the biocidal effect exerted by these compounds, with ‘therapeutic ratios’ (IC50 for growth inhibition/IC50 for violacein inhibition) around 1, in general (Table 2). Note that, as the length of the hydrocarbon chain becomes shorter, this ratio increased (8–9). […] To evaluate these compounds in further detail, […] stock solutions were prepared […] to avoid the use of high concentrations of DMSO in the bioassays. […] Serial two-fold dilutions (500–3.9 μM) were assayed. Consequently, the highest amount of DMSO used in the assay was 0.25% (v/v). […] Growth inhibitory effects are only observed at 500 μM, particularly for compound 7 (Fig 6D).

[2] = biological target: Mushroom tyrosinase (EC 1.14.18.1) (Agaricus bisporus, UniProt C7FF04); test: Tyrosinase inhibition assay (L-Dopa, dopachrome at 475 nm); format: biochemical; conditions: 15 and 30 μM inhibitor
Description: Tyrosinase inhibition assays were conducted as described in [52] with slight modifications. First, in order to characterize the Michaelis-Menten parameters of the enzyme kinetics, 100 μl of a mushroom tyrosinase solution (25 U) in sodium phosphate buffer (50 mM, pH 6.5) were pipetted in each well of a flat-bottom microtiter plate (Nunc 167008). Two-fold dilutions of L-Dopa, from 4.8 to 0.075 mM (final concentrations) were mixed (100 μl) with the enzyme solution. The enzymatic reaction was followed by measuring the absorbance at 475 nm every 30 s over 15 min, with shaking (150 rpm) between measurements. Temperature was kept constant at 30 °C. The values of KM and vmax under these conditions were obtained from Lineweaver-Burk plots. For tyrosinase inhibition assays, each well of the microtiter plate was filled with 100 μl of a mushroom tyrosinase solution and the appropriate amount of the test substance dissolved in DMSO. The compounds were pre-incubated with the enzyme at 30 °C for 10 min. Subsequently, the enzymatic reaction was triggered by addition of 100 μl of L-Dopa (1.2 mM test concentration). Formation of dopachrome was followed by measuring the absorbance at 475 nm as described above.

[3] = test system: Mushroom tyrosinase; test: Tyrosinase fluorescence quenching (fluorescence spectroscopy); format: binding, Agaricus bisporus; conditions: 280 nm excitation, 0–30 μM quencher
Description: Fluorescence measurements of tyrosinase solutions were performed using an Edinburgh Instruments LifeSpec II fluorescence spectrometer, exciting the complexes at 280 nm with an Edinburgh Instruments EPLED-280 subnanosecond pulsed diode source (typically pulse width at half maximum around 860 ps, repetition rate 10 MHz) and using Edinburg Instruments F900 acquisition software. A multichannel plate photomultiplier was used as the detector using single photon counting technique. Lifetime estimation was made using instrument response function (IRF) reconvolution analysis with FAST software by Edinburgh Instruments, providing a temporal resolution around 0.2 ns. A blank medium without enzyme was used to confirm that the collected fluorescence comes from the enzyme molecules and any influence of the fluorescence of the quencher and buffer components on the enzyme fluorescence is negligible. […]
Fluorescence of enzymes is very sensitive to conformational changes of the protein structure. The interaction of tyrosinase inhibitors can be evaluated by the analysis of the intrinsic tyrosinase fluorescence when tyrosinase and inhibitor (quencher) molecules are mixed in a solution. In particular, we have evaluated the effect of the tyrosinase inhibitor 16. Quenching of tyrosinase fluorescence is expected as a consequence of conformational alterations induced by the quencher. […]

Sequence of Mushroom tyrosinase (EC 1.14.18.1) (G1K3P4 entry or part of it): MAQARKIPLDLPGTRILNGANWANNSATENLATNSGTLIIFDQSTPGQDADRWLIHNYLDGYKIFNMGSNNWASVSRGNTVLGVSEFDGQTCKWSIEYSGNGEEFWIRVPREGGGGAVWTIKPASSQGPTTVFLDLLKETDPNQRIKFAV
Sequence of Mushroom tyrosinase (EC 1.14.18.1) (C7FF04 1-392): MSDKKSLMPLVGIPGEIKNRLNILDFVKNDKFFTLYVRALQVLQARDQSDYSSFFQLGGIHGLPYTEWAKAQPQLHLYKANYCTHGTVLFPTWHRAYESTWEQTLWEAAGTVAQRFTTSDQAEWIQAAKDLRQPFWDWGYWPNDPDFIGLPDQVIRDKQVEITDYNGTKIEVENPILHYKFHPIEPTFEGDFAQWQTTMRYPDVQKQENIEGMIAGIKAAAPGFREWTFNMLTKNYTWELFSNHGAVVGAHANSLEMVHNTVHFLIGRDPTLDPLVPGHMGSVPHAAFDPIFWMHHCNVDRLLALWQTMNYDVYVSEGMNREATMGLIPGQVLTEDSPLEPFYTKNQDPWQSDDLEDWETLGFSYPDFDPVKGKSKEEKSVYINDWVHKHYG

SMILES	Solubility in water [1]	Type of tyrosinase inhibition (Lineweaver-Burk plots) [2]	Stern-Volmer quenching constant KSV [3]
CCCCC[P+](c1ccccc1)(c1ccccc1)c1ccccc1 [Compound 7]	poor solubility in water		
CCCCCCCCCCCCCCCC[P+](c1ccccc1)(c1ccccc1)c1ccccc1 [Compound 16]		non-competitive inhibition	about 4490 M^-1
